Assay results taken from US12595239B2, “Substituted isoxazoline derivatives” (BASF SE, priority 2021, dated 2026).

Tests used:
Format in all cases: in vivo
[1] = system: Plutella xylostella; assay: B.6 Diamond Back Moth, cabbage leaf disc dip test; conditions: foliar, 3rd instar larvae, 72 hours after treatment, read-out: mortality in comparison with untreated controls
Protocol: The active compound was dissolved at the desired concentration in a mixture of 1:1 (vol:vol) distilled water:acetone. Surfactant (Kinetic) was added at a rate of 0.01% (vol/vol). The test solution was prepared at the day of use. Cabbage leaf discs (60 mm in diameter) were dipped in test solution and air-dried. Treated leaves were placed in petri dishes lined with moistened filter paper and inoculated with ten 3rd instar larvae. Mortality was recorded 72 hours after treatment. Feeding damages were also recorded using a scale of 0-100%.

[2] = system: Dichromothrips corbetti; assay: B.7 Orchid Thrips, floral-immersion test; conditions: adult thrips, 72 hours after treatment, read-out: mortality in comparison with untreated controls
Protocol: Dichromothrips corbetti adults used for bioassay were obtained from a colony maintained continuously under laboratory conditions. For testing purposes, the test compound was diluted in a 1:1 mixture of acetone:water (vol:vol), plus Kinetic at a rate of 0.01% v/v.
Thrips potency of each compound was evaluated by using a floral-immersion technique. Each orchid petal was dipped into treatment solution and allowed to dry in Petri dishes. Treated petals were placed into individual re-sealable plastic along with about 20 adult thrips. All test arenas were held under dark condition and a temperature of about 28° C. for duration of the assay. The percent mortality was recorded 72 hours after treatment.

[3] = system: Anthonomus grandis; assay: B.1 Boll weevil (Anthonomus grandis), 96-well microtiter plate diet test; conditions: 120 h, egg and larval mortality, 5 days, read-out: mortality in comparison with untreated controls
Protocol: For evaluating control of boll weevil, the test unit consisted of 96-well-microtiter plates containing an insect diet and 5-10 A. grandis eggs.
The compounds were formulated using a solution containing 75% v/v water and 25% v/v DMSO. Different concentrations of formulated compounds were sprayed onto the insect diet at 5 μl, using a custom-built micro atomizer, at two replications.
After application, microtiter plates were incubated at about 25±1° C. and about 75±5% relative humidity for 5 days. Egg and larval mortality were then visually assessed.

[4] = system: Spodoptera eridania; assay: B.11 Southern Armyworm 2nd instar larvae, lima bean foliar spray test; conditions: 96 h, 4 days after treatment, read-out: mortality in comparison with untreated controls
Protocol: The active compounds were formulated by a Tecan liquid handler in 100% cyclohexanone as a 10′000 ppm solution supplied in tubes. The 10′000 ppm solution was serially diluted in 100% cyclohexanone to make interim solutions. These served as stock solutions for which final dilutions were made by the Tecan in 50% acetone:50% water (v/v) into 10 or 20 ml glass vials. A nonionic surfactant (Kinetic®) was included in the solution at a volume of 0.01% (v/v). The vials were then inserted into an automated electrostatic sprayer equipped with an atomizing nozzle for application to plants/insects. Lima bean plants (variety Sieva) were grown 2 plants to a pot and selected for treatment at the 1st true leaf stage. Test solutions were sprayed onto the foliage by an automated electrostatic plant sprayer equipped with an atomizing spray nozzle. The plants were dried in the sprayer fume hood and then removed from the sprayer. Each pot was placed into perforated plastic bags with a zip closure. Ten to 11 armyworm larvae were placed into the bag and the bags zipped closed. Test plants were maintained in a growth room at about 25° C. and about 20-40% relative humidity for 4 days, avoiding direct exposure to fluorescent light (14:10 light:dark photo-period) to prevent trapping of heat inside the bags. Mortality and reduced feeding were assessed 4 days after treatment, compared to untreated control plants.

[5] = system: Bemisia argentifolii; assay: B.12 Silverleaf Whitefly (adults), cotton plant spray test; conditions: 72 h, 3 days after treatment, read-out: mortality in comparison with untreated controls
Protocol: The active compounds were formulated by a Tecan liquid handler in 100% cyclohexanone as a 10,000-ppm solution supplied in tubes. The 10,000-ppm solution was serially diluted in 100% cyclohexanone to make interim solutions. These served as stock solutions for which final dilutions were made by the Tecan in 50% acetone:50% water (v/v) into 5 or 10 ml glass vials. A nonionic surfactant (Kinetic®) was included in the solution at a volume of 0.01% (v/v). The vials were then inserted into an automated electrostatic sprayer equipped with an atomizing nozzle for application to plants/insects. Cotton plants at the cotyledon stage (one plant per pot) were sprayed by an automated electrostatic plant sprayer equipped with an atomizing spray nozzle. The plants were dried in the sprayer fume hood and then removed from the sprayer. Each pot was placed into a plastic cup and about 10 to 12 whitefly adults (approximately 3-5 days old) were introduced. The insects were collected using an aspirator and a nontoxic Tygon® tubing connected to a barrier pipette tip. The tip, containing the collected insects, was then gently inserted into the soil containing the treated plant, allowing insects to crawl out of the tip to reach the foliage for feeding. Cups were covered with a reusable screened lid. Test plants were maintained in a growth room at about 25° C. and about 20-40% relative humidity for 3 days, avoiding direct exposure to fluorescent light (14:10 light:dark photoperiod) to prevent trapping of heat inside the cup. Mortality was assessed 3 days after treatment, compared to untreated control plants.

[6] = system: Myzus persicae; assay: B.3 Green Peach Aphid (mixed life stages), systemic artificial diet test; conditions: 72 h, treated aphid diet, 3 days, read-out: mortality in comparison with untreated controls
Excerpt: For evaluating control of Green Peach Aphid through systemic means the test unit consisted of 96-well-microtiter plates containing liquid artificial diet under an artificial membrane. The compounds were formulated using a solution containing 75% v/v water and 25% v/v DMSO. Different concentrations of formulated compounds were pipetted into the aphid diet, using a custom-built pipette, at two replications. After application, 5-8 adult aphids were placed on the artificial membrane inside the microtiter plate wells. The aphids were then allowed to suck on the treated aphid diet and incubated at about 23±1° C. and about 50±5% relative humidity for 3 days. Aphid mortality and fecundity was then visually assessed.

[7] = system: Heliothis virescens; assay: B.4 Tobacco Budworm, microtiter plate diet test; conditions: 120 h, egg and larval mortality, 5 days, read-out: mortality in comparison with untreated controls
Protocol: For evaluating control of Tobacco Budworm, the test unit consisted of 96-well-microtiter plates containing an insect diet and 15-25 H. virescens eggs. The compounds were formulated using a solution containing 75% v/v water and 25% v/v DMSO. Different concentrations of formulated compounds were sprayed onto the insect diet at 10 μl, using a custom-built micro atomizer, at two replications. After application, microtiter plates were incubated at about 28±1° C. and about 80±5% relative humidity for 5 days. Egg and larval mortality was then visually assessed.

[8] = system: Aedes aegypti; assay: whole plant or invertebrate; conditions: 48 h, larval mortality, 2 days, read-out: mortality in comparison with untreated controls
Protocol: For evaluating control of Yellow Fever Mosquito, the test unit consisted of 96-well-microtiter plates containing 200 μl of tap water per well and 5-15 freshly hatched A. aegypti larvae. The active compounds were formulated using a solution containing 75% (v/v) water and 25% (v/v) DMSO. Different concentrations of formulated compounds or mixtures were sprayed onto the insect diet at 2.5 μl, using a custom-built micro atomizer, at two replications.
After application, microtiter plates were incubated at 28±1° C., 80±5% RH for 2 days. Larval mortality was then visually assessed.

O=C(Nc1ccc(F)c(NC(=O)C(F)F)c1F)c1cc(NC2=NOC(c3cc(Cl)cc(Cl)c3)(C(F)(F)F)C2)ccc1Cl (stereo not shown) [I-6, 2-chloro-5-[[5-(3,5-dichlorophenyl)-5-(trifluoromethyl)-4H-isoxazol-3-yl]amino]-N-[3-[(2,2-difluoroacetyl)amino]-2,4-difluoro-phenyl]benzamide]
≥ 75%: mortality at 300 ppm [1] | mortality at 300 ppm [2]

N#CC1(NC(=O)c2c(F)ccc(NC3=NOC(c4cc(Cl)cc(Cl)c4)(C(F)(F)F)C3)c2F)CC1 (stereo not shown) [I-30, N-(1-cyanocyclopropyl)-3-[[5-(3,5-dichlorophenyl)-5-(trifluoromethyl)-4H-isoxazol-3-yl]amino]-2,6-difluoro-benzamide]
≥ 75%: mortality at 2500 ppm [3] | mortality at 300 ppm [1] | mortality at 300 ppm [2] | mortality at 300 ppm [4]

O=C(NC1CN(S(=O)(=O)C(F)F)C1)c1cc(NC2=NOC(c3cc(Cl)c(F)c(Cl)c3)(C(F)(F)F)C2)ccc1Cl (stereo not shown) [I-41, 2-chloro-5-[[5-(3,5-dichloro-4-fluoro-phenyl)-5-(trifluoromethyl)-4H-isoxazol-3-yl]amino]-N-[1-(difluoromethylsulfonyl)azetidin-3-yl]benzamide]
≥ 75%: mortality at 300 ppm [1] | mortality at 300 ppm [2] | mortality at 300 ppm [4]

O=C(Nc1ccc(F)cc1F)c1cccc(NC2=NOC(c3cc(Cl)cc(Cl)c3)(C(F)(F)F)C2)c1F (stereo not shown) [I-48, 3-[[5-(3,5-dichlorophenyl)-5-(trifluoromethyl)-4H-isoxazol-3-yl]amino]-N-(2,4-difluoro-phenyl)-2-fluoro-benzamide]
≥ 75%: mortality at 300 ppm [1] | mortality at 300 ppm [2] | mortality at 300 ppm [4]

CC(C)(C#N)NC(=O)c1cc(NC2=NOC(c3cc(Cl)c(F)c(Cl)c3)(C(F)(F)F)C2)ccc1Cl (stereo not shown) [I-58, 2-chloro-N-(1-cyano-1-methyl-ethyl)-5-[[5-(3,5-dichloro-4-fluoro-phenyl)-5-(trifluoromethyl)-4H-isoxazol-3-yl]amino]benzamide]
≥ 75%: mortality at 300 ppm [1] | mortality at 300 ppm [2] | mortality at 300 ppm [4]

O=C(Nc1cnccc1F)c1cc(NC2=NOC(c3cc(Cl)c(F)c(Cl)c3)(C(F)(F)F)C2)ccc1Cl (stereo not shown) [I-62, 2-chloro-5-[[5-(3,5-dichloro-4-fluoro-phenyl)-5-(trifluoromethyl)-4H-isoxazol-3-yl]amino]-N-(4-fluoro-3-pyridyl)benzamide]
≥ 75%: mortality at 300 ppm [1] | mortality at 300 ppm [2]

CCOC(=O)N(C1=NOC(c2cc(Cl)cc(Cl)c2)(C(F)(F)F)C1)c1ccc(Cl)c(C(=O)N(C(=O)OCC)C2(C#N)CC2)c1 (stereo not shown) [I-100, ethyl N-[4-chloro-3-[(1-cyanocyclopropyl)-ethoxycarbonyl-carbamoyl]-phenyl]-N-[5-(3,5-dichlorophenyl)-5-(trifluoromethyl)-4H-isoxazol-3-yl]carbamate]
≥ 75%: mortality at 300 ppm [1] | mortality at 300 ppm [2] | mortality at 300 ppm [4] | mortality at 300 ppm [5]

O=C(N[C@@H]1CON(CC(F)(F)F)C1=O)c1cc(NC2=NOC(c3cc(Cl)c(F)c(Cl)c3)(C(F)(F)F)C2)ccc1Cl (stereo partly drawn) [I-114, 2-chloro-5-[[5-(3,5-dichloro-4-fluoro-phenyl)-5-(trifluoromethyl)-4H-isoxazol-3-yl]amino]-N-[(4R)-3-oxo-2-(2,2,2-trifluoroethyl)isoxazolidin-4-yl]benzamide]
≥ 75%: mortality at 300 ppm [1] | mortality at 300 ppm [2] | mortality at 300 ppm [4] | mortality at 300 ppm [5]

CN(C1=NOC(c2cc(Cl)cc(Cl)c2)(C(F)(F)F)C1)c1ccc(Cl)c(C(=O)NC2(c3cnn(C)c3)CC2)c1 (stereo not shown) [I-125, 2-chloro-5-[[5-(3,5-dichlorophenyl)-5-(trifluoromethyl)-4H-isoxazol-3-yl]-methyl-amino]-N-[1-(1-methylpyrazol-4-yl)cyclopropyl]benzamide]
≥ 75%: mortality at 2500 ppm [3] | mortality at 2500 ppm [6] | mortality at 2500 ppm [7] | mortality at 300 ppm [1] | mortality at 300 ppm [2]

O=C(Nc1ccc(F)cc1F)c1cc(NC2=NOC(c3cc(Cl)cc(Cl)c3)(C(F)(F)Cl)C2)ccc1Cl (stereo not shown) [I-131, 2-chloro-5-[[5-[chloro(difluoro)methyl]-5-(3,5-dichlorophenyl)-4H-isoxazol-3-yl]amino]-N-(2,4-difluorophenyl)benzamide]
≥ 75%: mortality at 2500 ppm [3] | mortality at 2500 ppm [6] | mortality at 2500 ppm [7] | mortality at 2500 ppm [8] | mortality at 300 ppm [1] | mortality at 300 ppm [2] | mortality at 300 ppm [4]

O=C(NC1(c2ccnnc2)CC1)c1cc(NC2=NOC(c3cc(Cl)cc(Cl)c3)(C(F)(F)F)C2)ccc1Cl (stereo not shown) [I-162, 2-chloro-5-[[5-(3,5-dichlorophenyl)-5-(trifluoromethyl)-4H-isoxazol-3-yl]amino]-N-(1-pyridazin-4-ylcyclopropyl)benzamide]
≥ 75%: mortality at 2500 ppm [3] | mortality at 2500 ppm [8] | mortality at 300 ppm [1] | mortality at 300 ppm [4] | mortality at 300 ppm [5]

N#CC1(NC(=O)c2cc(S(=O)(=O)C3=NOC(c4cc(Cl)cc(Cl)c4)(C(F)(F)F)C3)ccc2Cl)CC1 (stereo not shown) [II-3, 2-chloro-N-(1-cyanocyclopropyl)-5-[[5-(3,5-dichlorophenyl)-5-(trifluoromethyl)-4H-isoxazol-3-yl]sulfonyl]benzamide]
≥ 75%: mortality at 300 ppm [1]
